Assay [1] deals with T1, PRMT5 (Homo sapiens, UniProt O14744).
T1 construct: purchased Viva (custom protein)
The assay can be described thus: PRMT5 biochemical IC50 assay with SAM as cofactor. The conditions noted are these: PRMT5, SAM as cofactor; read-out: SAM IC50.

Assay [2] concerns the target T1, PRMT5. Description: PRMT5 biochemical IC50 assay with no cofactor. Conditions: PRMT5, no cofactor. The source says: Table 1 indicates IC50 values (μM) against PRMT5 for exemplary compounds in the presence of SAM as cofactor, with no cofactor, and with MTA as cofactor, respectively (columns 4-6). […] Ki values can be calculated from the IC50 values as described in the Examples section. As detailed in the Examples section, for the assay performed in the presence of SAM, IC50=Ki×1.5 (Ki=IC50/1.5).

Assay [3] addresses T1, PRMT5. The assay can be described thus: PRMT5 biochemical IC50 assay with MTA as cofactor. Conditions: PRMT5, MTA as cofactor; read-out: MTA IC50.
Assay [4] relates to HAP1 MTAP-intact cell line. The assay can be described thus: SDMA in-cell western assay, HAP1 MTAP-intact. The conditions noted are these: Homo sapiens, HAP1, SDMA in-cell western, HAP1 MTAP-intact; read-out: MTAP HAP1 intact IC50. The class given is cell-based. The gist of the method: (§1)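 IC50 values come from SDMA signal quantified by in-cell western in two HAP1 lines, one with native MTAP levels and one lacking MTAP.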

The test system of assay [5] is HAP1 MTAP-deleted cell line. Description: SDMA in-cell western assay, HAP1 MTAP-deleted. The class given is cell-based. Conditions: for IC50: Homo sapiens, HAP1, SDMA in-cell western, HAP1 MTAP-deleted; for MTAP intact/deleted ratio: SDMA in-cell western. The gist of the method:
as §1

Assay [6] deals with HAP1 MTAP-deleted cell line. The assay can be described thus: Viability assay, MTAP-deleted cell line. The class given is cell-based. Conditions: Homo sapiens, read-out: HAP1 MTAP deleted viability. The source says: Table 1 additionally indicates IC50 values in a viability assay for the MTAP-deleted cell line (column 10), indicating the effect of treatment with compound on cell survival.

Where [7] appears, read: read-out: HAP1 MTAP deleted IC50.
Where [8] appears, read: IC50 ratio HAP1 MTAP-intact / HAP1 MTAP-deleted.
Setting [9] is: HAP1, viability assay, MTAP-deleted cell line.
Where [10] appears, read: read-out: No Cofactor/ rel IC50.
Setting [11] is: read-out: HAP 1 MTAP deleted IC50.
Where [12] appears, read: HAP1, viability, HAP1 MTAP-deleted cell line.

From patent US11999727B2 (Tango Therapeutics, Inc., priority 2020, dated 2024) come the findings set out here.

Structures are written as SMILES. Some results are limits rather than exact numbers.

T1 sequence (O14744 whole entry): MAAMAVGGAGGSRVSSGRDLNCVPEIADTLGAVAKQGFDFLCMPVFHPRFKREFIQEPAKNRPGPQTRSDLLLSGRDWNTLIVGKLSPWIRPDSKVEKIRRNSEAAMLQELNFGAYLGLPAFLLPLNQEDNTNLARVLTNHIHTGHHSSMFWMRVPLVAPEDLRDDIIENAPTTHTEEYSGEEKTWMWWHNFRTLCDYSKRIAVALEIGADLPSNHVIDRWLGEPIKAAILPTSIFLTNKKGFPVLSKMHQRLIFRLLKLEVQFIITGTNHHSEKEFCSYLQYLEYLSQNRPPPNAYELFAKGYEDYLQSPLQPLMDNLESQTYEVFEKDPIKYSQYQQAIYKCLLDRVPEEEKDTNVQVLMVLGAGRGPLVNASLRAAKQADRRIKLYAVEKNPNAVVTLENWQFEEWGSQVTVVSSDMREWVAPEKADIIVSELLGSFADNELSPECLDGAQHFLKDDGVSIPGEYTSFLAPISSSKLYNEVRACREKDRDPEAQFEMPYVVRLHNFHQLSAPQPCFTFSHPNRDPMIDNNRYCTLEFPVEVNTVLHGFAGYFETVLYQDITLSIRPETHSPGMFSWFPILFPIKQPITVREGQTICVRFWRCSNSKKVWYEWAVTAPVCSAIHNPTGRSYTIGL
T1 sequence (Q9BQA1 whole entry partner): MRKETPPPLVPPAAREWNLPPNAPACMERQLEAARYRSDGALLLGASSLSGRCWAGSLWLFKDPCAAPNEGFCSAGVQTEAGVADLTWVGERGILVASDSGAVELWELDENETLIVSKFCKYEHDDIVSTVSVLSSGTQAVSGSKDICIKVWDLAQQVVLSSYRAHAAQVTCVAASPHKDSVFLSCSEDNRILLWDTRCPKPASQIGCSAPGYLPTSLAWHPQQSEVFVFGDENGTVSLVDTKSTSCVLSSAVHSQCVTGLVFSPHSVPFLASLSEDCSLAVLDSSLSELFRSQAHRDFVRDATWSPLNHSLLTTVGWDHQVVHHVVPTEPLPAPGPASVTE

As for `CC(=O)N1CCCC([C@@H]2CC[C@@H](C)CN2C(=O)C(=O)Nc2cnc(N)c(C)c2)C1` (mixture of isomers) [Compound 757, rac-2-[(2R,5S)-2-(1-acetyl-3-piperidyl)-5-methyl-1-piperidyl]-N-(6-amino-5-methyl-3-pyridyl)-2-oxo-acetamide], the IC50 was 0.05 to 0.5 µM on PRMT5 [1]; 0.05 to 0.5 µM at PRMT5 [2] (read-out: No Cofactor/rel IC50); 0.05 to 0.5 µM on PRMT5 [3]; > 1 µM in assay [4]; 0.1 to 1 µM in assay [5] (setting [7]); > 10 µM in assay [6] (HAP1, viability assay, HAP1 MTAP-deleted). Further, in assay [5] (setting [8]), the MTAP intact/deleted ratio entry was “B (an IC50 ratio greater than or equal to 3 fold but lower than 10 fold)”.
As to `CCc1cc(NC(=O)C(=O)N2C[C@@H](C)CC[C@@H]2c2ccc3sc([C@H](C)N(C)C)nc3c2)cnc1N` (single isomer, unassigned) [Compound 1188], the IC50 at PRMT5 [1] is 0.05 to 0.5 µM; on PRMT5 [2] (read-out: No Cofactor/rel IC50), < 0.05 µM; on PRMT5 [3] it was < 0.05 µM; in assay [4], < 0.1 µM; in assay [5] (setting [7]), < 0.1 µM; in assay [6] (setting [9]), < 1 µM. The MTAP intact/deleted ratio result in assay [5] (IC50 ratio HAP1 MTAP-intact vs HAP1 MTAP-deleted) is listed as “A (an IC50 ratio greater than or equal to 10 fold)”.
Turning to `CCc1cc(NC(=O)C(=O)N2C[C@@H](C)CC[C@@H]2c2ccc3sc(C4(CN(C)C)CC4)nc3c2)cnc1N` [Compound 1347, N-(6-amino-5-ethylpyridin-3-yl)-2-((2R,5S)-2-(2-(1-((dimethylamino)methyl)cyclopropyl)benzo[d]thiazol-5-yl)-5-methylpiperidin-1-yl)-2-oxoacetamide], the IC50 on PRMT5 [1] was 0.05 to 0.5 µM; on PRMT5 [2] (setting [10]) it was < 0.05 µM; on PRMT5 [3], < 0.05 µM; in assay [4], < 0.1 µM; in assay [5] (setting [11]), < 0.1 µM; in assay [6] (setting [12]) it was < 1 µM. The “MTAP intact/deleted ratio” value in assay [5] (setting [8]) is “A (an IC50 ratio greater than or equal to 10 fold)”.
`CCc1cc(NC(=O)C(=O)N2C[C@@H](C)CC[C@@H]2c2ccc3sc([C@@H]4[C@@H]5CN(C)C[C@@H]54)nc3c2)cnc1N` [Compound 1366, N-(6-amino-5-ethylpyridin-3-yl)-2-((2R,5S)-5-methyl-2-(2-((1R,5S,6s)-3-methyl-3-azabicyclo[3.1.0]hexan-6-yl)benzo[d]thiazol-5-yl)piperidin-1-yl)-2-oxoacetamide]: the IC50 on PRMT5 [1] is < 0.05 µM; at PRMT5 [2] (setting [10]), < 0.05 µM; on PRMT5 [3], < 0.05 µM; in assay [4] it was < 0.1 µM; in assay [5] (setting [11]), < 0.1 µM; in assay [6] (setting [12]), < 1 µM. Moreover, the “MTAP intact/deleted ratio” value in assay [5] (setting [8]) was “A (an IC50 ratio greater than or equal to 10 fold)”.
Consider `COc1ccc([C@@H]2CC[C@@H](C)CN2C(=O)C(=O)Nc2cncc(C(N)=O)c2)cc1F` (racemic) [Compound 208, rac-5-{2-[(2R,5S)-2-(3-Fluoro-4-methoxyphenyl)-5-methylpiperidin-1-yl]-2-oxoacetamido}pyridine-3-carboxamide], for which the IC50 at PRMT5 [1] is 0.05 to 0.5 µM; at PRMT5 [2] (read-out: No Cofactor/rel IC50) it was 0.05 to 0.5 µM; on PRMT5 [3] it was < 0.05 µM; in assay [4], > 1 µM; in assay [5] (setting [7]), 0.1 to 1 µM; in assay [6] (setting [9]), 1 to 10 µM. In addition, the MTAP intact/deleted ratio result in assay [5] (setting [8]) is reported as “A (an IC50 ratio greater than or equal to 10 fold)”.
With `NC(=O)c1cncc(NC(=O)C(=O)N2CC[C@@H](O)C[C@H]2c2ccccc2)c1` (racemic) [Compound 185, 5-(2-(4-hydroxy-2-phenylpiperidin-1-yl)-2-oxoacetamido)nicotinamide], the IC50 on PRMT5 [1] is 0.05 to 0.5 µM; at PRMT5 [2] (read-out: No Cofactor/rel IC50) it was > 0.5 µM; at PRMT5 [3] it was 0.05 to 0.5 µM; in assay [4], > 1 µM; in assay [5] (setting [7]), > 1 µM; in assay [6] (setting [9]), > 10 µM. The MTAP intact/deleted ratio result in assay [5] (setting [8]) is “C (an IC50 ratio of less than 3 fold)”.
